Our source for the EC50 values is patent US10166218B2, “3-(1H-indol-2-yl)-1H-pyrazolo[3,4-C]pyridines and therapeutic uses thereof” (Samumed, LLC, priority 2015, dated 2019).

One may read the EC50 as the concentration at which the effect is half-maximal.

What all share (type): cell-based
In test [1] the test system is primary human fibroblasts derived from IPF patients (LL29 cells) treated with TGF-β1; α-smooth muscle actin (αSMA). The test is described as follows: Inhibition of the fibrotic process: αSMA staining in TGF-β1 treated primary human fibroblasts from IPF patients (LL29 cells). The settings on record: Fibroblast, 96 h, TGF-β1 20 ng/mL, 4 days, % cells positive for αSMA. An excerpt:
Representative compounds were screened using primary human fibroblasts (derived from IPF patients) treated with TGF-β1 to determine their ability to inhibit the fibrotic process.
Primary human fibroblasts derived from IPF patients (LL29 cells) [^1Xiaoqiu Liu, et. al., “Fibrotic Lung Fibroblasts Show Blunted Inhibition by cAMP Due to Deficient cAMP Response Element-Binding Protein Phosphorylation”, Journal of Pharmacology and Experimental Therapeutics (2005), 315(2), 678-687; ^2Watts, K. L., et. al., “RhoA signaling modulates cyclin D1 expression in human lung fibroblasts; implications for idiopathic pulmonary fibrosis”, Respiratory Research (2006), 7(1), 88] were obtained from American Type Culture Collection (ATCC) and expanded in F12 medium supplemented with 15% Fetal Bovine Serum and Penicillin/Streptomycin.
Each compound was dissolved in DMSO as a 10 mM stock and used to prepare compound source plates. Serial dilution (1:2, 11-point dose-response curves from 10 μM to 1.87 nM) and compound transfer was performed using the ECHO 550 (Labcyte, Sunnyvale, Calif.) into 384-well clear bottom assay plates (Greiner Bio-One) with appropriate DMSO backfill for a final DMSO concentration of 0.1%. LL29 cells are plated at 1,500 cells/well in 80 μL/well F12 medium supplemented with 1% Fetal Bovine Serum. One hour after addition of the cells, TGF-β1 (Peprotech; 20 ng/mL) was added to the plates to induce fibrosis (ref. 1 and 2 above). Wells treated with TGF-β1 and containing DMSO were used as controls. Cells were incubated at 37° C. and 5% CO2 for 4 days. Following incubation for 4 days, SYTOX green nucleic acid stain (Life Technologies [Thermo Fisher Scientific]) was added to the wells at a final concentration of 1 μM and incubated at room temperature for 30 min. Cells were then fixed using 4% formaldehyde (Electron Microscopy Sciences), washed 3 times with PBS followed by blocking and permeabilization using 3% Bovine Serum Albumin (BSA; Sigma) and 0.3% Triton X-100 (Sigma) in PBS. Cells were then stained with antibody specific to α-smooth muscle actin (αSMA; Abcam) (ref. 1 and 2 above) in 3% Bovine Serum Albumin (BSA; Sigma) and 0.3% Triton X-100 (Sigma) in PBS, and incubated overnight at 4° C. Cells were then washed 3 times with PBS, followed by incubation with Alexa Flor-647 conjugated secondary antibody (Life Technologies [Thermo Fisher Scientific]) and DAPI at room temperature for 1 hour. Cells were then washed 3 times with PBS and plates were sealed for imaging. αSMA staining was imaged by excitation at 630 nm and emission at 665 nm and quantified using the Compartmental Analysis program on the CellInsight CX5 (Thermo Scientific). Dead or apoptotic cells were excluded from analysis based on positive SYTOX green staining. % of total cells positive for αSMA were counted in each well and normalized to the average of 11 wells treated with TGF-β1 on the same plate using Dotmatics' Studies Software. The normalized averages (fold change over untreated) of 3 replicate wells for each compound concentration were used to create dose-responses curves and EC50 values were calculated using non-linear regression curve fit in the Dotmatics' Studies Software. For EC50 of >10 μM, the percent inhibition at 10 μM is provided.

Test [2] relates to Wnt activity (Sp5-Luc reporter, TCF/LEF binding sites) in SW480 colon carcinoma cells. The test is described as follows: Screening assay for Wnt activity: Sp5-Luc reporter gene assay in stably transduced SW480 cells. The settings on record: Homo sapiens, overnight incubation. An excerpt:
The screening assay for Wnt activity is described as follows. Reporter cell lines can be generated by stably transducing cancer cell lines (e.g., colon cancer) or primary cells (e.g., IEC-6 intestinal cells) with a lentiviral construct that includes a Wnt-responsive promoter driving expression of the firefly luciferase gene.
SW480 colon carcinoma cells were transduced with a lentiviral vector expressing luciferase with a human Sp5 promoter consisting of a sequence of eight TCF/LEF binding sites. SW480 cells stably expressing the Sp5-Luc reporter gene and a hygromycin resistance gene were selected by treatment with 150 μg/mL of hygromycin for 7 days. These stably transduced SW480 cells were expanded in cell culture and used for all further screening activities. Each compound was dissolved in DMSO as a 10 mM stock and used to prepare compound source plates. Serial dilution (1:3, 10-point dose-response curves starting from 10 μM) and compound transfer was performed using the ECHO 550 (Labcyte, Sunnyvale, Calif.) into 384-well white solid bottom assay plates (Greiner Bio-One) with appropriate DMSO backfill for a final DMSO concentration of 0.1%. For Sp5-Luc reporter gene assays, the cells were plated at 4,000 cells/well in 384-well plates with medium containing 1% fetal bovine serum and incubated overnight at 37° C. and 5% CO2. Following incubation, 20 μl of BrightGlo luminescence reagent (Promega) was added to each well of the 384-well assay plates. The plates were placed on an orbital shaker for 2 min and then luminescence was quantified using the Envision (Perkin Elmer) plate reader. Readings were normalized to DMSO only treated cells, and normalized activities were utilized for EC50 calculations using the dose-response log (inhibitor) vs. response-variable slope (four parameters) nonlinear regression feature available in GraphPad Prism 5.0 (or Dotmatics). For EC50 of >10 μM, the percent inhibition at 10 μM is provided.
(In general: In a reporter assay the amount or activity of a reporter protein is the signal.)

The subject of the next test is SW480 colon cancer cells. Put plainly: Cell viability assay (CellTiter-Blue) in SW480 colon cancer cells. The settings on record: Homo sapiens, 96 h, four days, CellTiter-Blue. Here is the method: Representative compounds were screened using the following assay procedure to assess the effect on cell viability as described below.
Each compound was dissolved in DMSO as a 10 mM stock and used to prepare compound source plates. Serial dilution (1:3, 8-point dose-response curves from 10 μM to 0.0045 μM) and compound transfer was performed using the ECHO 550 (Labcyte, Sunnyvale, Calif.) into 96-well clear bottom, black-walled plates (Corning-Costar).
Approximately 2×10^3 SW480 colon cancer cells were seeded into each well and allowed to incubate in the presence or absence of compound for four days at 37° C./5% CO2. Eight replicates of DMSO-treated cells served as controls and cells treated with compound were performed in duplicate.
After incubation, 20 μL of CellTiter-Blue (Promega) was added to each well allowed to incubate for approximately 3 hours. This reagent was a buffered solution which contains resazurin, metabolically active cells were able to reduce rezarurin (blue) into resorufin (pink) which was highly fluorescent. This measured fluorescence was used as a readout for cell viability.
After incubation, the plates were read at Ex 560 nm Em 590 nm (Cytation 3, BioTek). Dose-response curves were generated and EC50 concentration values were calculated using non-linear regression curve fit in the GraphPad Prism (San Diego, Calif.) or Dotmatics' Studies Software (Bishops Stortford, UK). For EC50 of >10 μM, the percent inhibition at 10 μM is provided.
(Resazurin is reduced to fluorescent resorufin, in cell work by metabolically active cells.)

For a further test, the system named is IL-6 (THP-1 cells). Put plainly: Inhibition of IL-6 in LPS-stimulated THP-1 human monocyte cells (HTRF). The following applies: inhibition of IL-6 in LPS-stimulated THP-1 cells, HTRF, 10-point dose-response starting from 10 μM. Here is the method: Human monocyte cell line (THP-1 cells; Catalog # TIB-202, ATCC, Manassas, Va.) were cultured in Roswell Park Memorial Institute (RPMI) 1640 Medium (Catalog #21870-100, Buffalo, N.Y.) with 1% L-glutamine, 1% HEPES, 1% Sodium Pyruvate, 2% Sodium Bicarbonate supplemented with 100 units/mL penicillin, 50 μg/mL streptomycin, 2-mercaptoethanol (0.05 mM) [basal medium] and 10% fetal bovine serum (Catalog #16140089, Life Technologies, Carlsbad, Calif.) at 37° C. and 5% CO2.
THP-1 cells were cultured in basal media with 1% FBS for 24 hours before the start of the assay. Each compound was dissolved in DMSO as a 10 mM stock and used to prepare compound source plates. Serial dilution (1:3, 10-point dose-response curves starting from 10 μM) and compound transfer was performed using the ECHO 550 (Labcyte, Sunnyvale, Calif.) into 384-well white low volume assay plates (Greiner Bio-One) with appropriate DMSO backfill for a final DMSO concentration of 0.1%. THP-1 cells were plated at 5000 cells/well in the 384-well plates and incubated at 37° C. for 2 h. 500 ng/mL of LPS was added after 2 hours and cells were incubated for another 22 hours at 37° C. Plates were spun in a centrifuge for 1 minute at […] and a mixture of anti-IL6 XL665, and anti-IL6 Cryptate diluted in reconstitution buffer (Cisbio Inc.) was added to each well. Following incubation for 3 hrs at room temperature, Homogeneous Time-Resolved Fluorescence (HTRF) was measured using the Envision (Perkin Elmer) at 665 nm and […]. The ratio of fluorescence at 665 nm to 620 nm was used as a readout for IL6 quantification. All samples were processed in duplicate. Readings were normalized to DMSO treated cells and normalized activities were utilized for EC50 calculations using the dose-response log (inhibitor) vs. response-variable slope (four parameters) nonlinear regression feature available in GraphPad Prism 5.0 (or Dotmatics). For EC50 of >10 μM, the percent inhibition at 10 μM is provided.
In general terms: TR-FRET usually uses a lanthanide donor and a delayed reading to cut background.

Regarding `CC(C)Nc1cncc(-c2cc3c(-c4cc5c(N6CCCCC6)cccc5[nH]4)n[nH]c3cn2)c1` [Compound 180, N-Isopropyl-5-(3-(4-(piperidin-1-yl)-1H-indol-2-yl)-1H-pyrazolo[3,4-c]pyridin-5-yl)pyridin-3-amine], the EC50 was 0.267 µM in test [1], 0.362 µM in test [2], 1.73 µM with SW480 colon cancer cells and 1 µM in the test with IL-6 (THP-1 cells).

For `c1ccc(-c2cc3c(-c4cc5c(N6CCCCC6)cccc5[nH]4)n[nH]c3cn2)nc1` [Compound 196, 3-(4-(Piperidin-1-yl)-1H-indol-2-yl)-5-(pyridin-2-yl)-1H-pyrazolo[3,4-c]pyridine], the EC50 came to 1.16 µM in test [1], 3.42 µM in test [2], 6.06 µM with SW480 colon cancer cells and 8.78 µM with IL-6 (THP-1 cells).

Consider `CN1CCN(c2cccc3[nH]c(-c4n[nH]c5cnc(-c6cncc(N)c6)cc45)cc23)CC1` [Compound 227, 5-(3-(4-(4-Methylpiperazin-1-yl)-H-indol-2-yl)-1H-pyrazolo[3,4-c]pyridin-5-yl)pyridin-3-amine], for which the EC50 came to 1.91 µM in test [1], 1.16 µM in test [2], 2.61 µM in the test with SW480 colon cancer cells and 1.08 µM with IL-6 (THP-1 cells).

As to `CN1CCN(c2cccc3[nH]c(-c4n[nH]c5cnc(-c6cncc(NC(=O)Cc7ccccc7)c6)cc45)cc23)CC1` [Compound 234, N-(5-(3-(4-(4-Methylpiperazin-1-yl)-H-indol-2-yl)-1H-pyrazolo[3,4-c]pyridin-5-yl)pyridin-3-yl)-2-phenylacetamide], the concentration for a half-maximal effect (EC50) in test [1] amounted to 1.25 µM; in test [2] it was 1.04 µM; with SW480 colon cancer cells, 3.13 µM; in the test on IL-6 (THP-1 cells), 1.94 µM.

For the compound `CN(C)Cc1cncc(-c2cc3c(-c4cc5c(N6CCN(C)CC6)cccc5[nH]4)n[nH]c3cn2)c1` [Compound 237, N,N-Dimethyl-1-(5-(3-(4-(4-methylpiperazin-1-yl)-1H-indol-2-yl)-1H-pyrazolo[3,4-c]pyridin-5-yl)pyridin-3-yl)methanamine], the EC50 in test [1] is 7.32 µM; in test [2] it was 3.41 µM; with SW480 colon cancer cells, 3.8 µM; in the test with IL-6 (THP-1 cells), 3.61 µM.

Turning to `CCCCC(=O)Nc1cncc(-c2cc3c(-c4cc5c(N6CCN(C)CC6)cccc5[nH]4)n[nH]c3cn2)c1` [Compound 243, N-(5-(3-(4-(4-Methylpiperazin-1-yl)-H-indol-2-yl)-1H-pyrazolo[3,4-c]pyridin-5-yl)pyridin-3-yl)pentanamide], the EC50 in test [1] is 1.01 µM; in test [2] it was 1.05 µM; in the test with SW480 colon cancer cells, 2.14 µM; in the test on IL-6 (THP-1 cells), 3.23 µM.

For `CN1CCN(c2cccc3[nH]c(-c4n[nH]c5cnc(-c6cncnc6)cc45)cc23)CC1` [Compound 251, 3-(4-(4-Methylpiperazin-1-yl)-1H-indol-2-yl)-5-(pyrimidin-5-yl)-1H-pyrazolo[3,4-c]pyridine], the EC50 in test [1] came to 1.69 µM; in test [2] it was 1.52 µM; with SW480 colon cancer cells, 1.69 µM; with IL-6 (THP-1 cells), 1.08 µM.

For `CC(C)CC(=O)Nc1cncc(-c2cc3c(-c4cc5ccccc5[nH]4)n[nH]c3cn2)c1` [Compound 254, N-(5-(3-(1H-Indol-2-yl)-1H-pyrazolo[3,4-c]pyridin-5-yl)pyridin-3-yl)-3-methylbutanamide], the EC50 was determined as 0.139 µM in test [1], 0.154 µM in test [2], 1.27 µM with SW480 colon cancer cells and 0.2 µM with IL-6 (THP-1 cells).

On to `c1cncc(-c2cc3c(-c4cc5ccccc5[nH]4)n[nH]c3cn2)c1` [Compound 256, 3-(1H-Indol-2-yl)-5-(pyridin-3-yl)-1H-pyrazolo[3,4-c]pyridine], for which the EC50 in test [1] is 0.051 µM; in test [2], 0.185 µM; in the test on SW480 colon cancer cells, 2.25 µM; in the test with IL-6 (THP-1 cells), 0.056 µM.

With `c1cc(-c2ccoc2)c2cc(-c3n[nH]c4cnc(-c5ccncc5)cc34)[nH]c2c1` [Compound 326, 3-(4-(Furan-3-yl)-1H-indol-2-yl)-5-(pyridin-4-yl)-1H-pyrazolo[3,4-c]pyridine], the EC50 in test [1] stood at 1.39 µM; in test [2] it was 0.157 µM; with SW480 colon cancer cells, 0.103 µM; with IL-6 (THP-1 cells) it was 5.08 µM.
